The numbers were not newly measured in patent US8048407B2, “In situ gelling self-reactive materials for embolization” (priority 2003, dated 2011), which cites them from elsewhere.

The conditions of this series: literature studies.

With `C=CC(=O)NCNC(=O)C=C` [NMBA, N,N-methylenebisacrylamide], the cross-link efficiency is recorded as 0.0066.
